In one assay the target is V1 Receptor (Rattus norvegicus, UniProt P30560). The experiment in a line: V1 Receptor Binding Assay ([3H]-Arg-vasopressin, rat liver plasma membrane). Conditions: 37° C., 10 minutes, pH 8.0.
A further assay addresses T1, V2 Receptor (Rattus norvegicus, UniProt Q00788).
T1 construct: rat kidney plasma membrane preparations; from tissue; host or cells: rat kidney plasma membranes
The assay can be described thus: V2 Receptor Binding Assay ([3H]-Arg-vasopressin, rat kidney plasma membrane). The following applies: 4° C., pH 8.0.

Drawing on patent publication US5244898A, “Benzoheterocyclic compounds” (Otsuka Pharmaceutical Co., Ltd., priority 1991, dated 1993), this text covers IC50 for twelve compounds.

Structures can show the parent of a compound that is named as a salt.

T1 sequence (Q00788 whole entry): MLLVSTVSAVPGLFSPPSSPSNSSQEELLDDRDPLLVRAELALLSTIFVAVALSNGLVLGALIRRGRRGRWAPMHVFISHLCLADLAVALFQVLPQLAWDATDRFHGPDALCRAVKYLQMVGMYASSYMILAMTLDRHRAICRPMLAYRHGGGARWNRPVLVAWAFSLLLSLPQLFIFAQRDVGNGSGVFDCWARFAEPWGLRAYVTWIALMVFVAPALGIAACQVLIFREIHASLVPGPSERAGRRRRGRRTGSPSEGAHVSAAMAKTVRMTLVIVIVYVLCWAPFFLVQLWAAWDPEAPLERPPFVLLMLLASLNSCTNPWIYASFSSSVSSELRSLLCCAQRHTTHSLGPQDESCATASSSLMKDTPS
Chain of V1 Receptor (P30560 whole entry): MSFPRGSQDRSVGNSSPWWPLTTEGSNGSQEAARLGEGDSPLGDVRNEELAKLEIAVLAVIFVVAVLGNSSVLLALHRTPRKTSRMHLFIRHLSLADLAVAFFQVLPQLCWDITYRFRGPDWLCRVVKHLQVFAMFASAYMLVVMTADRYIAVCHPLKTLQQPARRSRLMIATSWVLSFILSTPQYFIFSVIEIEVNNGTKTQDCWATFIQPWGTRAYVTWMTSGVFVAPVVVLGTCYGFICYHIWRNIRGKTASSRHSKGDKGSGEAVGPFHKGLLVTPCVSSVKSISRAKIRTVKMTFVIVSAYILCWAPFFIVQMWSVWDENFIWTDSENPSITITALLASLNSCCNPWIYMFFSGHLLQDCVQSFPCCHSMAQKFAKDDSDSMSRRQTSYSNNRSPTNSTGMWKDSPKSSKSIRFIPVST
Protocol for V1 Receptor: After incubation, the mixture is filtered three times using the glass filter (GF/F) so as to separate the membrane preparation combining with vasopressin and then washed with the buffer (5 ml). This glass filter is taken out and mixed with liquid scintillation cocktail. The amount of [^3 H]-vasopressin combining with the membrane is measured by liquid scintillation counter and the rate of the inhibitory effect of the test compound is estimated according to the following equation.
(§1) C1 : The amount of [^3 H]-vasopressin combining with the membrane in the presence of the test compound of a known amount.
(§2) C0 : The amount of [^3 H]-vasopressin combining with the membrane in the absence of the test compound.
B1 : The amount of [^3 H]-vasopressin combining with the membrane in the presence of the excess amount of vasopressin (10^-6 M).
(§3) The results are expressed as IC50 value, which is the concentration of the test compound required to achieve the inhibitory effect in the rate of 50%.
Protocol for V2 Receptor: Chem., 253, 3211 (1978)], the plasma membrane (100000 dpm, 4×10^-10M) of [^3 H]-Arg-vasopressin and a test compound (0.6 mg, 10^-10 -10^-5 M) are incubated at 4° C. for 3 hours in 100 mM Tris-HCl buffer pH: 8.0 (250 μl ) containing 5 mM MgCl2, 1 mM EDTA and 0.1 % BSA. After incubation, the mixture is filtered using the glass filter (GF/F) so as to separate the membrane preparation combining with vasopressin and then washed twice with the buffer (5 ml). This glass filter is taken out and mixed with liquid scintillation cocktail. The amount of [^3 H]-vasopressin combining with the membrane is measured by liquid scintillation counter and the rate of the inhibitory effect of the test compound is estimated according to the following equation. [formula]
as §1, §2
B1 : The amount of [3H-vasopressin combining with the membrane in the presence of the excess amount of vasopressin (10^-6 M).
as §3

What is called IC50 is the concentration that gives 50% inhibition. A low value points to greater potency. In the case of `COc1cc(NC(=O)c2ccccc2Cl)ccc1C(=O)N1CCCC(CC(=O)N2CCC(N(C)C)CC2)c2cc(Cl)ccc21` (stereo not drawn) [Test Compound 45, 5-[(4-Dimethylamino-1-piperidinyl)carbonylmethyl]-7-chloro-1-[2-methoxy-4-(2-chlorobenzoylamino)benzoyl]-2,3,4,5-tetrahydro-1H-benzazepine hydrochloride], the results for the IC50 on V1 Receptor and on V2 Receptor were 8 nM and 4 nM, respectively.
Regarding `COc1cc(NC(=O)c2ccccc2C)ccc1C(=O)N1CCCC(CN2CCN(C)CC2)c2cc(F)ccc21` (stereo not drawn) [Test Compound 46, 5-[(4-Methyl-I-piperazinyl)methyl]-7-fluoro-1-[2-methoxy-4-(2-methylbenzoylamino)benzoyl]-2,3,4,5-tetrahydro-1H-benzazepine], the IC50 is 89 nM at V1 Receptor and 9 nM on V2 Receptor.
Consider `COc1cc(NC(=O)c2ccccc2C)ccc1C(=O)N1CCCC(OCCN2CCN(C)CC2)c2cc(F)ccc21` (stereo not drawn) [Test Compound 47, 5-[2-(4-Methyl-1-piperazinyl)ethoxy]-7-fluoro-1-[2-methoxy-4-(2-methylbenzoylamino)benzoyl]-2,3,4,5-tetrahydro-1H-benzazepine], for which the IC50 at V1 Receptor came to 330 nM; on V2 Receptor, 8 nM.
As to `COc1cc(NC(=O)c2ccccc2Cl)ccc1C(=O)N1CCCC(CC(=O)NC2CCN(Cc3ccccc3)CC2)c2cc(Cl)ccc21` (stereo not drawn) [Test Compound 48, 5-[(1-Benzyl-4-piperidinyl)aminocarbonylmethyl]-7-chloro-1-[2-methoxy-4-(2-chlorobenzoylamino)benzoyl]-2,3,4,5-tetrahydro-1H-benzazepine hydrochloride], the IC50 stood at 37 nM on V1 Receptor and 12 nM at V2 Receptor.
Turning to `Cc1ccccc1C(=O)Nc1ccc(C(=O)N2CCCC(CC(=O)N3CCCC3)c3cc(F)ccc32)cc1` (stereo not drawn) [Test Compound 50, 5-[(1-Pyrrolidinyl)carbonylmethyl]-7-fluoro-1-[4-(2-methylbenzoylamino)benzoyl]-2,3,4,5-tetrahydro-1H-benzazepine], the IC50 on V1 Receptor worked out at 110 nM; on V2 Receptor, 15 nM.
For `COc1cc(NC(=O)c2ccccc2Br)ccc1C(=O)N1CCCC(CC(=O)N(C)C)c2cc(F)ccc21` (stereo not drawn) [Test Compound 51, 5-Dimethylaminocarbonylmethyl-7-fluoro-1-[2-methoxy-4-(2-bromobenzoylamino)benzoyl]-2,3,4,5-tetrahydro-1H-benzazepine], the values for the IC50 at V1 Receptor and on V2 Receptor were 18 nM and 3 nM, respectively.
As for `COc1cc(NC(=O)c2ccccc2C)ccc1C(=O)N1CCCC(CC(=O)N2CCNCC2)c2cc(Cl)ccc21` (stereo not drawn) [Test Compound 52, 5-[(1-Piperazinyl)carbonylmethyl]-7-chloro-1-[2-methoxy-4-(2-methylbenzoylamino)benzoyl]-2,3,4,5-tetrahydro-1H-benzazepine hydrochloride], the half-inhibitory concentration (IC50) on V1 Receptor came out at 16 nM; at V2 Receptor it was 6 nM.
For `COc1cc(NC(=O)c2ccccc2C)ccc1C(=O)N1CCCC(CCN2CCC(N(C)C)CC2)c2cc(Cl)ccc21` (stereo not drawn) [Test Compound 54, 5-[2-(4-Dimethylamino-1-piperidinyl)ethyl]-7-chloro-1-[2-methoxy-4-(2-methylbenzoylamino)benzoyl]-2,3,4,5-tetrahydro-1H-benzazepine dihydrochloride] the same measures were 54 nM and 4 nM.
For the compound `COc1cc(NC(=O)c2ccccc2C)ccc1C(=O)N1CCCC(CCN2CCN(C)CC2)c2cc(Cl)ccc21` (stereo not drawn) [Test Compound 55, 5-[2-(4-Methyl-1-piperazinyl)ethyl]-7-chloro-1-[2-methoxy-4-(2-methylbenzoylamino)benzoyl]-2,3,4,5-tetrahydro-1H-benzazepine dihydrochloride], the IC50 on V1 Receptor worked out at 62 nM; at V2 Receptor it was 12 nM.
Consider `COc1cc(NC(=O)c2ccccc2C)ccc1C(=O)N1CCCC(CC(=O)N2CCCCC2)c2cc(F)ccc21` (stereo not drawn) [Test Compound 58, 5-[(1-piperidinyl)carbonylmethyl]-7-fluoro-1-[2-methoxy-4-(2-methylbenzoylamino)benzoyl]-2,3,4,5-tetrahydro-1H-benzazepine], for which the values for the IC50 on V1 Receptor and at V2 Receptor were 95 nM and 16 nM, respectively.
The matching figures for `COc1cc(NC(=O)c2ccccc2Br)ccc1C(=O)N1CCCC(CC(=O)N2CCC(NC(C)=O)CC2)c2cc(F)ccc21` (stereo not drawn) [Test Compound 60, 5-[(4-Acetylamino-1-piperidinyl)carbonylmethyl]-7-fluoro-1-[2-methoxy-4-(2-bromobenzoylamino)benzoyl]-2,3,4,5-tetrahydro-1H-benzazepine]: 45 nM and 10 nM.
Regarding `COc1cc(NC(=O)c2ccccc2C)ccc1C(=O)N1CCCC(CC(=O)N2CCN(C)CC2)c2cc(Cl)ccc21` (stereo not drawn) [Test Compound 63, 5-[(4-Methyl-1-piperazinyl)carbonylmethyl]-7-chloro-1-[2-methoxy-4-(2-methylbenozylamino)benzoyl]-2,3,4,5-tetrahydro-1H-benzazepine], the IC50 at V1 Receptor turned out to be 30 nM; at V2 Receptor, 10 nM.
